Structures can show the parent of a compound that is named as a salt. Where two headings read alike, the source gives them in different places.
Experiments:
[1] = target: MCL-1 (Homo sapiens, UniProt Q07820); assay: Protein-protein interaction assay MCL-1/Noxa BH3 peptide (MCL-1 assay), TR-FRET; type: binding; settings: MBP-MCL-1 / Noxa BH3-derived peptide, median
Outline: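 IC50 came from a 4-parameter fit of the normalized 665/620 nm TR-FRET ratio (anti-MBP Eu-cryptate/streptavidin-XL665). Compounds (0.1 nM–20 μM, duplicates) were preincubated 10 min at 22 °C with 1 nM MBP-MCL-1 in pH 7 Tris/NaCl/KF buffer, then read after 1 h at 22 °C plus overnight at 4 °C.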

[2] = system: SUDHL5; assay: Induction of caspase-3/7 activity (Caspase-Glo 3/7), SUDHL5; type: cell-based; settings: caspase-3/7 induction, SUDHL5 cells, 3 h treatment, median
Outline: (§1)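 DLBCL lines SUDHL5 and SUDHL10 treated with compounds for 3 h at 37 °C; caspase-3/7 activity read by Caspase-Glo 3/7 luminescence. Medium-only background subtracted; EC50 fitted with bottom fixed at 1 and top fixed at the reference compound's maximal induction.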

[3] = system: SUDHL10; assay: Induction of caspase-3/7 activity (Caspase-Glo 3/7), SUDHL10; type: cell-based; settings: caspase-3/7 induction, SUDHL10 cells, 3 h treatment, median
Outline: as §1

[4] = system: SUDHL5; assay: Anti-proliferative effect (CellTiter-Glo, 72 h), SUDHL5; type: cell-based; settings: SUDHL5 cells, antiproliferation, 72 h incubation, median, read-out: Antiproli SUDHL5 [M] (median)
Outline: (§2)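 Cells plated and incubated with compounds for 72 h at 37 °C, with a parallel day 0 reference plate for time-zero signal. Viability read by CellTiter-Glo luminescence after 10 min, measured identically on the day 0 and 72 h plates.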

[5] = system: SUDHL10; assay: Anti-proliferative effect (CellTiter-Glo, 72 h), SUDHL10; type: cell-based; settings: SUDHL10 cells, antiproliferation, 72 h incubation, median, read-out: Antiproli SUDHL10 [M] (median)
Outline: as §2

[6] = system: OPM2; assay: Anti-proliferative effect (CellTiter-Glo, 72 h), OPM2; type: cell-based; settings: OPM2 cells, median, read-out: IC50 antiproliferation assay OPM2 [M] (median)
Outline: as §2

[7] = system: A2780; assay: Anti-proliferative effect (CellTiter-Glo, 72 h), A2780; type: cell-based; settings: A2780 cells, median, read-out: IC50 antiproliferation assay A2780 [M] (median)
Outline: as §2

[8] = system: MV-4-11; assay: Anti-proliferative effect (CellTiter-Glo, 72 h), MV-4-11; type: cell-based; settings: MV-4-11 cells, median, read-out: IC50 antiproliferation assay MV-4-11 [M] (median)
Outline: as §2

[9] = system: SUDHL5; assay: Induction of cytotoxicity (CellTiter-Glo, 5 h), SUDHL5
[10] = system: SUDHL10; assay: Induction of cytotoxicity (CellTiter-Glo, 5 h), SUDHL10
[11] = Homo sapiens, SU-DHL-5, 5 h, read-out: Cytotox SUDHL5 [M] (median), SUDHL5 cells, cytotoxicity induction, CellTiter-Glo, 5 h incubation, median
[12] = Homo sapiens, SU-DHL10, 5 h, read-out: Cytotox SUDHL10 [M] (median), SUDHL10 cells, cytotoxicity induction, CellTiter-Glo, 5 h incubation, median
[13] = read-out: Cytotox SUDHL5 [M] (median), SUDHL5 cells, cytotoxicity induction, CellTiter-Glo, 5 h incubation, median
[14] = read-out: Cytotox SUDHL10 [M] (median), SUDHL10 cells, cytotoxicity induction, CellTiter-Glo, 5 h incubation, median

Chain of MCL-1 (Q07820 whole entry): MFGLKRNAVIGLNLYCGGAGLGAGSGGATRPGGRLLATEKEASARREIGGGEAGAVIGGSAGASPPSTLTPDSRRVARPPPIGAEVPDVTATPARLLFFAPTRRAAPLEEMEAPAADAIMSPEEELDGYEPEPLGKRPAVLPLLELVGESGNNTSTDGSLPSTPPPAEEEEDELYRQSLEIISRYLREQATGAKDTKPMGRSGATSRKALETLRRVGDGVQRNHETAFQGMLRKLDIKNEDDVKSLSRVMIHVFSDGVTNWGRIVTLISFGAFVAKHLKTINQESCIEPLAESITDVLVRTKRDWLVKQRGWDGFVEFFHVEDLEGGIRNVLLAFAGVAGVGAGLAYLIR

Structure (SMILES) | IC50 [1] | EC50 ([2]; Homo sapiens, SU-DHL-5, 3 h) | EC50 ([3]; Homo sapiens, SU-DHL10, 3 h) | IC50 ([4]; Homo sapiens, SU-DHL-5, 72 h) | IC50 ([5]; Homo sapiens, SU-DHL10, 72 h) | IC50 ([6]; Homo sapiens, OPM-2, 72 h) | IC50 ([7]; Homo sapiens, A2780, 72 h) | IC50 ([8]; Homo sapiens, MV4-11, 72 h) | IC50 [9, 11] | IC50 [10, 12] | EC50 [2] | EC50 [3] | IC50 [4] | IC50 [6] | IC50 [9, 13] | IC50 [5] | IC50 [7] | IC50 [8] | IC50 [10, 14]
Cn1nc(COc2ccc(N3CCN(S(=O)(=O)C4CC4)CC3)cc2)c2c1COCCCCn1c(C(=O)O)c(CCCOc3cccc4ccccc34)c3cccc-2c31 (racemic) [Example 1-11, (rac)-3-({4-[4-(cyclopropylsulfonyl)piperazin-1-yl]phenoxy}methyl)-1-methyl-7-[3-(naphthalen-1-yloxy)propyl]-110,11,12,13,15-hexahydropyrazolo[4′,3′:9,10][1,6]oxazacycloundecino[8,7,6-hi]indole-8-carboxylic Acid] | 0.00175 µM | 0.405 µM | 0.652 µM | 7.61e-07 M | 9.28e-07 M | 1.51e-06 M | 4.31e-06 M | 2.44e-06 M | 8.89e-07 M | 1.03e-06 M |  |  |  |  |  |  |  |  | 
Cc1ccc2c(CCCOc3cccc4ccccc34)c(C(=O)O)n3c2c1-c1c(C)nn(C)c1COCCCC3 (racemic) [Example 027, (rac)-1,3,4-trimethyl-7-[3-(naphthalen-1-yloxy)propyl]-1,10,11,12,13,15-hexahydropyrazolo[4′,3′:9,10][1,6]oxazacycloundecino[8,7,6-hi]indole-8-carboxylic Acid] | 0.00527 µM | 6.7 µM | 20.4 µM | 9.27e-06 M | 7.34e-06 M | > 3.3e-05 M | 2.54e-05 M | 2.98e-05 M | 8.54e-06 M | 2.59e-05 M |  |  |  |  |  |  |  |  | 
CCc1c2c(nn1C)COCCCCn1c(C(=O)O)c(CCCOc3cccc4ccccc34)c3cccc-2c31 (racemic) [Example 147, (rac)-3-Ethyl-2-methyl-7-[3-(1-naphthyloxy)propyl]-2,10,11,12,13,15-hexahydropyrazolo[4′,3′:9,10][1,6]oxazacycloundecino[8,7,6-hi]indole-8-carboxylic Acid] | 0.00377 µM | 2.26 µM | 7.48 µM | 3.06e-06 M | 3.93e-06 M | 1.05e-05 M | 2.44e-05 M | 1.37e-05 M | 2.8e-06 M | 9.53e-06 M |  |  |  |  |  |  |  |  | 
CN1CCCn2c(C(=O)O)c(CCCOc3cccc4ccccc34)c3cccc(c32)-c2c(COc3ccc(S(C)(=O)=O)cc3)nn(C)c2C1 (single isomer, unassigned) [Example 1-49, (−)-7,9-dimethyl-11-{[4-(methylsulfonyl)phenoxy]methyl}-1-[3-(naphthalen-1-yloxy)propyl]-4,5,6,7,8,9-hexahydropyrazolo[3′,4′:7,8][1,5]diazecino[9,10,1-hi]indole-2-carboxylic Acid] | 0.0542 µM |  |  |  | 9.58e-06 M |  | 2.31e-05 M | 1.21e-05 M |  | 2.5e-05 M | 20.4 µM | 18.8 µM | 1.22e-05 M | > 3.3e-05 M | 3.3e-05 M |  |  |  | 
CN1CCCn2c(C(=O)O)c(CCCOc3cccc4ccccc34)c3cccc(c32)-c2c(COc3ccc(S(C)(=O)=O)cc3)nn(C)c2C1 (single isomer, unassigned) [Example 1-50] | 0.0167 µM |  |  |  |  |  |  |  |  |  | 6.14 µM | 6.71 µM | 5.52e-06 M | 1.21e-05 M | 5.74e-06 M | 9.59e-06 M | 1.83e-05 M | 1.05e-05 M | 1.26e-05 M
Cn1nc(COc2ccc(S(C)(=O)=O)cc2)c2c1COCC=CCn1c(C(=O)O)c(CCCOc3cccc4ccccc34)c3cccc-2c31 (single isomer, unassigned) [Example 1-52, (E/Z)-1-methy-3-{[4-(methylsulfonyl)phenoxy]methyl}-7-[3-(naphthalen-1-yloxy)propyl]-1,10,13,15-tetrahydropyrazolo[4′,3′:9,10][1,6]oxazacycloundecino[8,7,6-hi]indole-8-carboxylic Acid] | 0.281 µM |  |  | 1.25e-05 M | 7.55e-06 M | 3.2e-05 M | 2.26e-05 M | 7.75e-06 M |  |  | 31 µM | > 33 µM |  |  | 3.15e-05 M |  |  |  | 2.71e-05 M
COc1ccccc1-c1ncc(OCc2nn(C)c3c2-c2cccc4c(CCCOc5cccc6ccccc56)c(C(=O)O)n(c24)CCCN(C)C3)cn1 (single isomer, unassigned) [Example 1-91, 11-({[2-(2-methoxyphenyl)pyrimidin-5-yl]oxy}methyl)-7,9-dimethyl-1-[3-(naphthalen-1-yloxy)propyl]-4,5,6,7,8,9-hexahydropyrazolo[3′,4′:7,8][1,5]diazecino[9,10,1-hi]indole-2-carboxylic acid-N-ethylethanamine Salt] | 0.0102 µM | 6.34 µM | 7.32 µM | 2.48e-06 M | 4.3e-06 M | 8.37e-06 M | 7.55e-06 M | 2.62e-06 M |  | 9.23e-06 M |  |  |  |  | 5.99e-06 M |  |  |  | 
COc1ccccc1-c1ncc(OCc2nn(C)c3c2-c2cccc4c(CCCOc5cccc6ccccc56)c(C(=O)O)n(c24)CCCN(C)C3)cn1 (single isomer, unassigned) [Example 1-92, 11-({[2-(2-methoxyphenyl)pyrimidin-5-yl]oxy}methyl)-7,9-dimethyl-1-[3-(naphthalen-1-yloxy)propyl]-4,5,6,7,8,9-hexahydropyrazolo[3′,4′:7,8][1,5]diazecino[9,10,1-hi]indole-2-carboxylic acid-N-ethylethanamine Salt] | 0.0068 µM |  |  |  |  |  |  |  |  |  | 3.88 µM | 4.47 µM | 3.21e-06 M | 9.6e-06 M | 2.9e-06 M | 3.83e-06 M | 6.23e-06 M | 1.57e-06 M | 5.77e-06 M
Cn1nc(COc2ccc(N3CCN(S(C)(=O)=O)CC3)cc2)c2c1COCCCCn1c(C(=O)O)c(CCCOc3cccc4ccccc34)c3cccc-2c31 (single isomer, unassigned; enantiomer 1) [Example 1-9, 1-methyl-3-({4-[4-(methylsulfonyl)piperazin-1-yl]phenoxy}methyl)-7-[3-(naphthalen-1-yloxy)propyl]-1,10,11,12,13,15-hexahydropyrazolo[4′,3′:9,10][1,6]oxazacycloundecino[8,7,6-hi]indole-8-carboxylic Acid (Enantiomer 1)] | 0.0242 µM |  |  |  |  |  |  |  |  |  | 12.5 µM | 14.7 µM | 3.37e-06 M | > 3.3e-05 M | 9.46e-06 M | 1.17e-05 M | > 3.3e-05 M | 8.59e-06 M | 9.08e-06 M
Cn1nc(COc2ccc(N3CCN(S(=O)(=O)C4CC4)CC3)cc2)c2c1COCCCCn1c(C(=O)O)c(CCCOc3cccc4ccccc34)c3cccc-2c31 (single isomer, unassigned; enantiomer 1) [Example 1-12, 3-({4-[4-(cyclopropylsulfonyl)piperazin-1-yl]phenoxy}methyl)-1-methyl-7-[3-(naphthalen-1-yloxy)propyl]-1,10,11,12,13,15-hexahydropyrazolo[4′,3′:9,10][1,6]oxazacycloundecino[8,7,6-hi]indole-8-carboxylic Acid (Enantiomer 1)] | 0.0688 µM |  |  |  |  |  |  |  |  |  | 18.3 µM | 20.4 µM | 5.72e-06 M | > 3.3e-05 M | 1.73e-05 M | 8.96e-06 M | > 3.3e-05 M | 6.78e-06 M | 1.43e-05 M

— patent US10981932B2, “Macrocyclic indole derivatives” (Bayer Aktiengesellschaft, priority 2016, dated 2021)
